{"source": "patent US9422293B2", "about": "(priority 2006, dated 2016)", "note": "Where a name gives a salt, the structure may show the parent alone."}
{"biological_target": "rat TRPV1 (Rattus norvegicus (Rat), UniProt O35433)", "sequence (O35433 whole entry)": "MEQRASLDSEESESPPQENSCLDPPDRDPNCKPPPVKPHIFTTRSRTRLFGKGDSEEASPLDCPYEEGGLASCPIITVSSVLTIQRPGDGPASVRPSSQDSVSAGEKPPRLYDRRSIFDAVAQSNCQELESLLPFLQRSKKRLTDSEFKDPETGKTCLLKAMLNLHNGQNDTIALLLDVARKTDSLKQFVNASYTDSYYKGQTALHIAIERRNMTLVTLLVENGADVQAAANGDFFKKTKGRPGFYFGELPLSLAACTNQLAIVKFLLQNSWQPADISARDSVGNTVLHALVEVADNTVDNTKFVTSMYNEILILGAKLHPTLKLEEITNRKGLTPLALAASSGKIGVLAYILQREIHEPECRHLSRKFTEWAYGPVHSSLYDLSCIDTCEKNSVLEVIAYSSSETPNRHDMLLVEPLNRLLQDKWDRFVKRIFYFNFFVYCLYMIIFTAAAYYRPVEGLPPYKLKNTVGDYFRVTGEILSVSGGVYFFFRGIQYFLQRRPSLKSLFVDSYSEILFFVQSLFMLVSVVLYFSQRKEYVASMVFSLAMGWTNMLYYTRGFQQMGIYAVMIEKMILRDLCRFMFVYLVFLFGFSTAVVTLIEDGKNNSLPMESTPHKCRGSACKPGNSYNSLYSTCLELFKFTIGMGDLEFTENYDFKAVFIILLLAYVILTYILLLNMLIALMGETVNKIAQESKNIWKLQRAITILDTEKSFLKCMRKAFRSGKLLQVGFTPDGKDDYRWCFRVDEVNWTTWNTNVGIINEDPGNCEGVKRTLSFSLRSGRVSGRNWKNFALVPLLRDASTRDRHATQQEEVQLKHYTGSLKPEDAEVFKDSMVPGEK", "details": "read-out: Rat IC50", "units": {"IC50": "nM"}}
{"smiles": "FC(F)(F)c1ccc(Nc2nc(N3CCCOCC3)nc3c2CCN(c2ncccc2C(F)(F)F)CC3)cc1Cl", "note": "[Example 245, N-[3-Chloro-4-(trifluoromethyl)phenyl]-2-(1,4-oxazepan-4-yl)-7-[3-(trifluoromethyl)pyridin-2-yl]-6,7,8,9-tetrahydro-5H-pyrimido[4,5-d]azepin-4-amine trifluoroacetic acid salt]", "IC50": 20}
{"smiles": "CC(C)(C)c1ccc(Nc2nc(N3CCCC3)nc3c2CCN(c2ncccc2C(F)(F)F)CC3)cc1", "note": "[Example 248, N-[4-(1,1-Dimethylethyl)phenyl]-2-pyrrolidin-1-yl-7-[3-(trifluoromethyl)pyridin-2-yl]-6,7,8,9-tetrahydro-5H-pyrimido[4,5-d]azepin-4-amine]", "IC50": 530}
{"smiles": "CC(C)(C)c1ccc(Nc2nc(N3CCC3)nc3c2CCN(c2ncccc2C(F)(F)F)CC3)cc1", "note": "[Example 249, 2-Azetidin-1-yl-N-[4-(1,1-dimethylethyl)phenyl]-7-[3-(trifluoromethyl)pyridin-2-yl]-6,7,8,9-tetrahydro-5H-pyrimido[4,5-d]azepin-4-amine]", "IC50": 830}
{"smiles": "FC(F)(F)c1ccc(Nc2nc(N3CCCCC3)nc3c2CCN(c2ncccc2C(F)(F)F)CC3)nc1", "note": "[Example 250, 2-Piperidin-1-yl-7-[3-(trifluoromethyl)pyridin-2-yl]-N-[5-(trifluoromethyl)pyridin-2-yl]-6,7,8,9-tetrahydro-5H-pyrimido[4,5-d]azepin-4-amine]", "IC50": 90}
{"smiles": "FC(F)(F)c1cccnc1N1CCc2nc(N3CCCCC3)nc(NCc3ccc(Cl)c(Cl)c3)c2CC1", "note": "[Example 251, N-[(3,4-Dichlorophenyl)methyl]-2-piperidin-1-yl-7-[3-(trifluoromethyl)pyridin-2-yl]-6,7,8,9-tetrahydro-5H-pyrimido[4,5-d]azepin-4-amine]", "IC50": 1980}
{"smiles": "CN(C)CCN(C)c1nc2c(c(Nc3ccc(C(C)(C)C)cc3)n1)CCN(c1ncccc1C(F)(F)F)CC2", "note": "[Example 254, N^2-[2-(Dimethylamino)ethyl]-N^4-[4-(1,1-dimethylethyl)phenyl]-N^2-methyl-7-[3-(trifluoromethyl)pyridin-2-yl]-6,7,8,9-tetrahydro-5H-pyrimido[4,5-d]azepine-2,4-diamine]", "IC50": 100}
{"smiles": "FC(F)(F)c1cccnc1N1CCc2nc(N3CCCCCC3)nc(NCc3ccc(Cl)c(Cl)c3)c2CC1", "note": "[Example 255, 2-Azepan-1-yl-N-[(3,4-dichlorophenyl)methyl]-7-[3-(trifluoromethyl)pyridin-2-yl]-6,7,8,9-tetrahydro-5H-pyrimido[4,5-d]azepin-4-amine]", "IC50": 700}
{"smiles": "COCCN(C)c1nc2c(c(Nc3ccc(C(C)(C)C)cc3)n1)CCN(c1ncccc1C(F)(F)F)CC2", "note": "[Example 257, N^4-[4-(1,1-Dimethylethyl)phenyl]-N^2-methyl-N^2-[2-(methyloxy)ethyl]-7-[3-(trifluoromethyl)pyridin-2-yl]-6,7,8,9-tetrahydro-5H-pyrimido[4,5-d]azepine-2,4-diamine]", "IC50": 20}
{"smiles": "OCC1CCCCN1c1nc2c(c(Nc3ccc(C(F)(F)F)cc3)n1)CCN(c1ncccc1C(F)(F)F)CC2", "note": "(centres unmarked) [Example 259, [1-(4-{[4-(Trifluoromethyl)phenyl]amino}-7-[3-(trifluoromethyl)pyridin-2-yl]-6,7,8,9-tetrahydro-5H-pyrimido[4,5-d]azepin-2-yl)piperidin-2-yl]methanol]", "IC50": 90}
{"smiles": "OC[C@@H]1CCCN1c1nc2c(c(Nc3ccc(C(F)(F)F)cc3)n1)CCN(c1ncccc1C(F)(F)F)CC2", "note": "[Example 260, [(2S)-1-(4-{[4-(Trifluoromethyl)phenyl]amino}-7-[3-(trifluoromethyl)pyridin-2-yl]-6,7,8,9-tetrahydro-5H-pyrimido[4,5-d]azepin-2-yl)pyrrolidin-2-yl]methanol hydrochloride salt]", "IC50": 50}
{"smiles": "OC[C@H]1CCCN1c1nc2c(c(Nc3ccc(C(F)(F)F)cc3)n1)CCN(c1ncccc1C(F)(F)F)CC2", "note": "[Example 261, [(2R)-1-(4-{[4-(Trifluoromethyl)phenyl]amino}-7-[3-(trifluoromethyl)pyridin-2-yl]-6,7,8,9-tetrahydro-5H-pyrimido[4,5-d]azepin-2-yl)pyrrolidin-2-yl]methanol hydrochloride salt]", "IC50": 340}
